This note sets out measurements from publication PMC4686731, “Screening of Pharmacologically Active Small Molecule Compounds Identifies Antifungal Agents Against Candida Biofilms” (Frontiers in Microbiology, 2015).

Converted amounts (≈) assume the structure as drawn. Where two headings read alike, the source gives them in different places.

In test [1] the test system is C. dubliniensis MYA 577 biofilm. Briefly: AST, biofilm mode. Type of test: cell-based. The conditions noted are these: Candida dubliniensis, MYA577BIOFILM, read-out: Minimum inhibitory concentration (MIC). The procedure:
(§1) The in vitro susceptibility of well-characterized wild-type C. albicans strain SC5314, which was provided by Prof. N.A.R. Gow (University of Aberdeen, Aberdeen, UK) was tested against 1280 compounds from the Library of Pharmacologically Active Compounds (LOPAC^1280TM, Sigma–Aldrich, USA). The screen was performed with C. albicans SC5314, and hits were further confirmed with the type strains C. dubliniensis MYA 577, C. glabrata ATCC 2001, C. kusei ATCC 6258, C. palapsilosis ATCC 22019, and C. tropicalis ATCC13803.
(§2) To investigate the antifungal effects of the hit compounds, ASTs were conducted using broth microdilution assays with high cell densities of the planktonic mode, adhesion phase and biofilm mode against Candida strains (C. albicans, C. dubliniensis, C. glabrata, C. kusei, C. palapsilosis, and C. tropicalis). First, high density cell (1 × 10^7 cells/mL) suspensions were added to the RPMI medium containing each hit compound (10–1000 μM) in 96-well plates and incubated at 37°C for 24 h. Next, the 50% minimum inhibitory concentrations (MICs) of high-density Candida planktonic cultures were determined using the CellTiter-Glo luminescent cell viability kit, as described above. The antifungal effects of the hit compounds were also evaluated in the adhesion phase and the biofilm mode, in the same manner as the planktonic mode. Candida biofilms were produced as described previously ([Jin et al., 2004]). In brief, Candida cells were grown on SDA at 37°C for 18 h. A loopful of the yeast culture was then inoculated into yeast nitrogen base (YNB) (Difco, USA) medium supplemented with 50 mM glucose. After overnight broth culture in a rotary shaker at 75 rpm, the cells were washed twice with 20 mL of PBS (pH 7.2, 0.1 M). The yeast cells were re-suspended in YNB supplemented with 100 mM glucose and adjusted to an optical density of 0.38 (1 × 10^7 cells/mL) at 520 nm. This standardized cell suspension was used immediately to form biofilms in the wells of 96-well polystyrene culture plates (Iwaki, Tokyo, Japan). First, the cells were incubated for 90 min at 37°C in a shaker at 75 rpm to allow yeast adherence to the well surface (adhesion phase), before the medium was aspirated and each well was washed once with PBS to remove non-adherent cells. YNB containing 100 mM glucose was then pipetted into each well and the plate was incubated at 37°C in a shaker at 75 rpm for 24 h. Non-adherent cells were removed by pipetting and the biofilms were washed twice with PBS. Following this biofilm growth phase, microscopic examination of the cultures was performed to exclude contamination. These ASTs were repeated on three different occasions.

Test [2] deals with C. albicans SC5314 biofilm. Briefly: AST, biofilm mode. The test is classed as cell-based. To be noted: Candida albicans, read-out: Minimum inhibitory concentration (MIC). As to the method:
as §1, §2

Test [3] has as its system C. tropicalis ATCC13803 biofilm. Nature of the test: AST, biofilm mode. The test is classed as cell-based. To be noted: Candida tropicalis, read-out: Minimum inhibitory concentration (MIC). The procedure:
as §1, §2

For test [4], the system named is C. palapsilosis ATCC 22019 biofilm. Briefly: AST, biofilm mode. Type of test: cell-based. The conditions noted are these: read-out: Minimum inhibitory concentration (MIC). The procedure: as §1, §2
In test [5] the test system is C. glabrata ATCC 2001 biofilm. Briefly: AST, biofilm mode. Type of test: cell-based. To be noted: Nakaseomyces glabratus, read-out: Minimum inhibitory concentration (MIC). The procedure: as §1, §2
Test [6] concerns C. palapsilosis ATCC 22019. Nature of the test: AST broth microdilution, high cell density planktonic mode. The test is classed as cell-based. To be noted: 24 h, read-out: Minimum inhibitory concentration (MIC). As to the method: as §1, §2
For orientation: Dilution methods test growth across graded concentrations, often in twofold steps.

Another test has as its system C. glabrata ATCC 2001. Described as above. The conditions noted are these: Nakaseomyces glabratus, read-out: Minimum inhibitory concentration (MIC). Type of test: cell-based. The procedure: as §1, §2
The next test has as its system C. dubliniensis MYA 577. Described as above. The test is classed as cell-based. The conditions noted are these: Candida dubliniensis, read-out: Minimum inhibitory concentration (MIC). As to the method:
as §1, §2

The test system of another test is C. tropicalis ATCC13803. The test is described as above. The test is classed as cell-based. To be noted: Candida tropicalis, read-out: Minimum inhibitory concentration (MIC). As to the method:
as §1, §2

In the next test the test system is C. kusei ATCC 6258. The test is described as above. Type of test: cell-based. The conditions noted are these: 24 h, read-out: Minimum inhibitory concentration (MIC). As to the method: as §1, §2
The test system of test [7] is C. albicans strain SC5314. Nature of the test: High-throughput screening (HTS) with antifungal susceptibility test, CellTiter-Glo ATP read-out. The conditions noted are these: for inhibition at 10 µM: Candida albicans, SC5314, 24 h; for fungistatic or fungicidal effect on C. albicans: HTS; for percent inhibition of the metabolic activity (ATP level) of C. albicans: 10 µM. Type of test: cell-based, Candida albicans. As to the method: as §1
High-Throughput Screening was conducted using ASTs, according to the standard Clinical and Laboratory Standard Institute (CLSI) method ([Watamoto et al., 2009]). Inocula from 24-h yeast cultures on Sabouraud’s dextrose agar (SDA) (Gibco, UK) were adjusted to a turbidity equivalent to a 0.5 McFarland standard at 520 nm using a spectrophotometer. The suspension was diluted further with RPMI 1640 medium (Gibco, UK) to yield an inoculum concentration of 0.5 × 10^3 to 2.5 × 10^3 cells/mL. C. albicans was incubated with small-molecule compounds (10 μM) from LOPAC^1280TM, which total volume was 150 μL, in 96-well plates at 37°C for 24 h to evaluate the antifungal effects. After incubation, the viability of the fungal cells was determined using the CellTiter-Glo luminescent cell viability kit (Promega, USA). The CellTiter-Glo reagent (150 μL) was added to the medium and incubated for 15 min at room temperature with shaking at 900 rpm. The luminescent signals were detected using a luminometer (GloMax Discover System, Promega, USA). The resulting signal intensity corresponds to ATP amounts and thus to the number of viable microbial cells upon drug exposure ([Stylianou et al., 2014]). In all 96-well plates, 100 and 0% growth controls were included as microbes plus dimethyl sulfoxide (0.1%) and microbes plus amphotericin B (100 μM), respectively. All assays were performed at least as two biological replicates in triplicate. The ATP level of C. albicans cells, which corresponded to the cell metabolic activity and viability, was calculated for each compound using the following equation (Figure 1A).
Percentageinhibition=100 × 1-{(experimental-positivecontrolaverage)/(negativecontrolaverage-positivecontrolaverage)}
Wells were scored as hits if the percentage inhibition was >50%. Hit compounds were evaluated further to assess their antifungal effects.
Background: In ATP-based viability assays light output follows the ATP content of the culture.

In another test the test system is Candida strains. Briefly: AST, adhesion phase, all Candida strains. The test is classed as cell-based. The conditions noted are these: all six strains. The procedure:
as §1
as §2, with “First, the cells were incubated for 90 min at 37°C in a shaker at 75 rpm to allow yeast adherence to the well surface (adhesion phase), before the medium was aspirated and each well was washed once with PBS to remove non-adherent cells. YNB containing 100 mM glucose was then pipetted into each well and the plate was incubated at 37°C in a shaker at 75 rpm for 24 h. Non-adherent cells were removed by pipetting and the biofilms were washed twice with PBS. Following this biofilm growth phase, microscopic examination of the cultures was performed to exclude contamination. These ASTs were repeated on three different occasions.” left out

[8] abbreviates: SC5314, biofilm mode (24 h biofilm).
Setting [9] is: ATCC13803, biofilm mode (24 h biofilm).
The mark [10] stands for this setting: ATCC2001, biofilm mode (24 h biofilm).
Where [11] appears, read: 50% MIC, planktonic mode, 1 × 10^7 cells/mL.
The mark [12] stands for this setting: ATCC2001, 50% MIC, planktonic mode, 1 × 10^7 cells/mL, 24 h.
[13] abbreviates: MYA577, 50% MIC, planktonic mode, 1 × 10^7 cells/mL, 24 h.
Where [14] appears, read: ATCC13803, 50% MIC, planktonic mode, 1 × 10^7 cells/mL, 24 h.
The mark [15] stands for this setting: compound 10 μM, 0.5 × 10^3 to 2.5 × 10^3 cells/mL, 37°C, 24 h, read-out: percent inhibition of the metabolic activity (ATP level) of C. albicans.
The mark [16] stands for this setting: compound 10 μM, 0.5 × 10^3 to 2.5 × 10^3 cells/mL, 37°C, 24 h.

Turning to `Cc1ccc(S(=O)(=O)/C=C/C#N)cc1` [Bay11-7082], the MIC in test [1] (biofilm mode (24 h biofilm)) is 31.3 µM (≈ 6.49 µg/mL); in [2] (setting [8]), 31.3 µM (≈ 6.49 µg/mL); in [3] (setting [9]) it was 62.5 µM (≈ 13 µg/mL); in [4] (biofilm mode (24 h biofilm)), 15.6 µM (≈ 3.23 µg/mL); in test [5] (setting [10]), 62.5 µM (≈ 13 µg/mL); in test [6] (setting [11]), 3.9 µM (≈ 0.808 µg/mL). In addition, the MIC in the test with C. glabrata ATCC 2001 (setting [12]) was 7.8 µM (≈ 1.62 µg/mL); in the test with C. dubliniensis MYA 577 (setting [13]) it was 3.9 µM (≈ 0.808 µg/mL); in the test on C. tropicalis ATCC13803 (setting [14]), 7.8 µM (≈ 1.62 µg/mL); with C. kusei ATCC 6258 (setting [11]), 3.9 µM (≈ 0.808 µg/mL). Further, the inhibition at 10 µM in test [7] (setting [15]) was 100%. Further, in [7] (compound 10 μM), the “fungistatic or fungicidal effect on C. albicans” value (“fungistatic or fungicidal effect” below) is listed as “strong fungicidal effects”. For the same compound, the “percent inhibition of the metabolic activity (ATP level) of C. albicans” value (from here on “percent inhibition”) in test [7] (setting [16]) was more than 90%. For the same compound, in the test with Candida strains, the “concentration that inhibited the metabolic activity of Candida strains” value was less than 31.3 µM.

As to `CC(C)(C)c1ccc(S(=O)(=O)/C=C/C#N)cc1` [Bay11-7085], the MIC in test [1] (biofilm mode (24 h biofilm)) turned out to be 62.5 µM (≈ 15.6 µg/mL); in test [2] (setting [8]), 31.3 µM (≈ 7.8 µg/mL); in test [3] (setting [9]), 62.5 µM (≈ 15.6 µg/mL); in test [4] (biofilm mode (24 h biofilm)), 15.6 µM (≈ 3.89 µg/mL); in test [5] (setting [10]), 62.5 µM (≈ 15.6 µg/mL); in test [6] (setting [11]) it was 3.9 µM (≈ 0.972 µg/mL). Also, the MIC with C. glabrata ATCC 2001 (setting [12]), with C. dubliniensis MYA 577 (setting [13]), in the test with C. tropicalis ATCC13803 (setting [14]) and in the test with C. kusei ATCC 6258 (setting [11]) was 3.9 µM (≈ 0.972 µg/mL) in each case. Besides, the inhibition at 10 µM in [7] (setting [15]) was found to be 100%. In addition, the “fungistatic or fungicidal effect” value in [7] (compound 10 μM) is given as “strong fungicidal effects”. Also, in test [7] (setting [16]), the “percent inhibition” value was more than 90%. Besides, in the test on Candida strains, the “concentration that inhibited the metabolic activity of Candida strains” value was less than 31.3 µM.

Take `C[n+]1cc2c3c(ccc2c2ccc4cc5c(cc4c21)OCO5)OCO3` [Sanguinarine, Sanguinarine chloride hydrate]: the MIC in test [1] (24 h) was 15.6 µM; in test [2] (SC5314, 24 h), 15.6 µM; in [3] (ATCC13803, 24 h), 31.3 µM; in test [4] (24 h), 7.8 µM; in test [5] (ATCC2001, 24 h), 15.6 µM; in test [6], less than 1 µM. The MIC in the test with C. glabrata ATCC 2001 (ATCC2001, 24 h) was less than 1 µM; with C. dubliniensis MYA 577 (MYA577, 24 h), less than 1 µM; in the test on C. tropicalis ATCC13803 (ATCC13803, 24 h), less than 1 µM; with C. kusei ATCC 6258 it was less than 1 µM. Moreover, the inhibition at 10 µM in test [7] (read-out: percent inhibition of the metabolic activity (ATP level) of C. albicans, compound 10 μM, 0.5 × 10^3 to 2.5 × 10^3 cells/mL, 37°C, 24 h) worked out at 100%. The “fungistatic or fungicidal effect” value in test [7] (compound 10 μM) is recorded as “strong fungicidal effects”. Besides, the “percent inhibition” value in test [7] (setting [16]) is more than 90%. Further, the “concentration that inhibited the metabolic activity of Candida strains” value with Candida strains is less than 15.6 µM.

Take `Cc1c2ccncc2c(C)c2c1[nH]c1ccccc12` [Ellipticine]: the MIC in test [1] (biofilm mode (24 h biofilm)) stood at 500 µM (≈ 123 µg/mL); in test [2] (setting [8]), 125 µM (≈ 30.8 µg/mL); in [3] (setting [9]), 250 µM (≈ 61.6 µg/mL); in [4] (biofilm mode (24 h biofilm)) it was 250 µM (≈ 61.6 µg/mL); in test [5] (setting [10]) it was 62.5 µM (≈ 15.4 µg/mL); in test [6] (setting [11]) it was 7.8 µM (≈ 1.92 µg/mL). Moreover, the MIC worked out at 7.8 µM (≈ 1.92 µg/mL) with C. glabrata ATCC 2001 (setting [12]), 3.9 µM (≈ 0.961 µg/mL) in the test on C. dubliniensis MYA 577 (setting [13]), 15.6 µM (≈ 3.84 µg/mL) in the test on C. tropicalis ATCC13803 (setting [14]) and 7.8 µM (≈ 1.92 µg/mL) in the test with C. kusei ATCC 6258 (setting [11]). For the same compound, the inhibition at 10 µM in test [7] (setting [15]) was found to be 100%. In test [7] (compound 10 μM), the “fungistatic or fungicidal effect” value is given as “strong fungicidal effects”. In test [7] (setting [16]), the “percent inhibition” value is on record as more than 90%.
